How the values were obtained:
[1] = mean ionic activity coefficient (dimensionless); mn = molality of the nth substance listed, in mol/kg; conditions: 298.15 K, Liquid, Isopiestic method
[2] = osmotic coefficient (dimensionless); mn = molality of the nth substance listed, in mol/kg; conditions: 298.15 K, Liquid, isopiestic method

CC[N+](CC)(CC)C(C)(C)C [N,N,N-triethyl-2-methyl-2-propanaminium] + O
Conditions	mean ionic activity coefficient, [1]	osmotic coefficient, [2]
m1 = 0.0342	0.7642	0.899
m1 = 0.0403	0.7444	0.891
m1 = 0.0449	0.7306	0.88
m1 = 0.0576	0.6966	0.862
m1 = 0.0639	0.6816	0.853
m1 = 0.0679	0.6725	0.847
m1 = 0.0754	0.6564	0.841
m1 = 0.088	0.6318	0.832
m1 = 0.0953	0.6187	0.82
m1 = 0.0994	0.6116	0.824
m1 = 0.1082	0.5972	0.808
m1 = 0.1645	0.5222	0.771
m1 = 0.1658	0.5208	0.771
m1 = 0.195	0.4905	0.75
m1 = 0.2257	0.4629	0.731
m1 = 0.2308	0.4586	0.723
m1 = 0.271	0.4282	0.706
m1 = 0.3095	0.4031	0.678
m1 = 0.3407	0.3851	0.671
m1 = 0.3517	0.3792	0.668
m1 = 0.383	0.3635	0.651
m1 = 0.4265	0.3439	0.634
m1 = 0.4648	0.3286	0.62
m1 = 0.5151	0.3106	0.604
m1 = 0.553	0.2985	0.592
m1 = 0.5917	0.2871	0.584
m1 = 0.61	0.2821	0.577
m1 = 0.7078	0.2583	0.554
m1 = 0.7607	0.2473	0.541
m1 = 0.8399	0.2327	0.524
m1 = 0.8805	0.2259	0.52
m1 = 0.9759	0.2118	0.509
m1 = 1.08	0.1986	0.49
m1 = 1.162	0.1896	0.487
m1 = 1.272	0.1791	0.473
m1 = 1.391	0.1693	0.459
m1 = 1.56	0.1579	0.452
m1 = 1.693	0.1504	0.455
m1 = 1.771	0.1466	0.449
m1 = 1.786	0.1459	0.454
m1 = 1.83	0.144	0.45
m1 = 1.924	0.1401	0.453
m1 = 1.99	0.1377	0.451
m1 = 2.231	0.1303	0.465

CC[N+](CC)(CC)CC(C)C.[I-] [N,N,N-triethyl-2-methyl-1-propanaminium iodide] + O
Conditions	mean ionic activity coefficient, [1]	osmotic coefficient, [2]
m1 = 0.0366	0.7118	0.841
m1 = 0.0433	0.6866	0.828
m1 = 0.0483	0.6687	0.819
m1 = 0.0624	0.6257	0.795
m1 = 0.0695	0.6067	0.784
m1 = 0.0739	0.5963	0.778
m1 = 0.0824	0.5764	0.769
m1 = 0.0975	0.5439	0.751
m1 = 0.1055	0.5296	0.741
m1 = 0.1113	0.5191	0.736
m1 = 0.12	0.5042	0.729
m1 = 0.1872	0.4149	0.678
m1 = 0.1889	0.4131	0.677
m1 = 0.2234	0.3799	0.655
m1 = 0.2618	0.3493	0.63
m1 = 0.265	0.347	0.63
m1 = 0.3183	0.3131	0.601
m1 = 0.3626	0.2901	0.579
m1 = 0.4063	0.2708	0.563
m1 = 0.4229	0.2643	0.555
m1 = 0.4602	0.2508	0.541
m1 = 0.5128	0.2343	0.527
m1 = 0.5607	0.2214	0.514
m1 = 0.6289	0.2056	0.495
m1 = 0.6797	0.1956	0.482
m1 = 0.737	0.1857	0.469
m1 = 0.749	0.1837	0.47
m1 = 0.8695	0.1669	0.451
m1 = 0.9418	0.1587	0.437
m1 = 1.034	0.1496	0.426
m1 = 1.1	0.144	0.416
m1 = 1.232	0.1343	0.404
m1 = 1.352	0.1271	0.392
m1 = 1.465	0.1213	0.386
m1 = 1.595	0.1156	0.377
m1 = 1.703	0.1115	0.375
m1 = 1.891	0.1055	0.373
m1 = 2.044	0.1013	0.377
m1 = 2.096	0.0994	0.379
m1 = 2.142	0.0984	0.378
m1 = 2.163	0.0981	0.381
m1 = 2.254	0.0955	0.387
m1 = 2.308	0.0941	0.389
m1 = 2.528	0.0917	0.41

CCC(C)[N+](CC)(CC)CC.[I-] (stereo not given) [N,N,N-triethyl-2-butanaminium iodide] + O
Conditions	mean ionic activity coefficient, [1]	osmotic coefficient, [2]
m1 = 0.0355	0.7342	0.868
m1 = 0.0419	0.7111	0.857
m1 = 0.0466	0.6955	0.849
m1 = 0.0596	0.6571	0.833
m1 = 0.0659	0.6405	0.827
m1 = 0.0701	0.6301	0.82
m1 = 0.078	0.6116	0.814
m1 = 0.0914	0.5833	0.801
m1 = 0.0985	0.5696	0.794
m1 = 0.1038	0.5599	0.79
m1 = 0.1115	0.5465	0.784
m1 = 0.1743	0.4605	0.728
m1 = 0.1756	0.459	0.728
m1 = 0.2078	0.4262	0.704
m1 = 0.2438	0.3955	0.676
m1 = 0.248	0.3922	0.673
m1 = 0.2939	0.3602	0.651
m1 = 0.338	0.3347	0.621
m1 = 0.3717	0.3178	0.616
m1 = 0.3901	0.3094	0.602
m1 = 0.431	0.2924	0.578
m1 = 0.4744	0.2766	0.57
m1 = 0.5204	0.2619	0.554
m1 = 0.5785	0.2458	0.538
m1 = 0.624	0.2347	0.525
m1 = 0.665	0.2257	0.52
m1 = 0.6928	0.22	0.508
m1 = 0.8	0.2011	0.49
m1 = 0.847	0.194	0.486
m1 = 0.9185	0.1842	0.48
m1 = 0.978	0.177	0.468
m1 = 1.091	0.1651	0.456
m1 = 1.19	0.1562	0.445
m1 = 1.306	0.1471	0.433
m1 = 1.407	0.1402	0.427
m1 = 1.545	0.132	0.413
m1 = 1.715	0.1234	0.411
m1 = 1.891	0.1159	0.407
m1 = 1.928	0.1144	0.412
m1 = 1.988	0.1122	0.407
m1 = 2.019	0.111	0.408
m1 = 2.09	0.1086	0.417
m1 = 2.172	0.1059	0.413
m1 = 2.413	0.0987	0.43

CCCC[N+](CC)(CCCC)CCCC.[I-] [N,N-dibutyl-N-ethyl-1-butanaminium iodide] + O
Conditions	mean ionic activity coefficient, [1]	osmotic coefficient, [2]
m1 = 0.0378	0.6891	0.814
m1 = 0.0449	0.6605	0.799
m1 = 0.0501	0.6414	0.789
m1 = 0.0653	0.5922	0.761
m1 = 0.0727	0.5712	0.749
m1 = 0.0776	0.5582	0.741
m1 = 0.0868	0.5355	0.731
m1 = 0.1035	0.499	0.707
m1 = 0.1121	0.4824	0.698
m1 = 0.1191	0.4695	0.688
m1 = 0.1288	0.4528	0.679
m1 = 0.2082	0.3515	0.614
m1 = 0.2083	0.3515	0.609
m1 = 0.2503	0.3142	0.584
m1 = 0.292	0.2842	0.565
m1 = 0.3027	0.2774	0.551
m1 = 0.3652	0.2431	0.524
m1 = 0.4254	0.217	0.493
m1 = 0.4783	0.1981	0.478
m1 = 0.498	0.1919	0.471
m1 = 0.547	0.1778	0.456
m1 = 0.6197	0.1601	0.436
m1 = 0.6878	0.1461	0.419
m1 = 0.7684	0.1322	0.405
m1 = 0.8453	0.1209	0.388
m1 = 0.908	0.1127	0.381
m1 = 0.9478	0.108	0.371
m1 = 1.128	0.09	0.347
m1 = 1.231	0.0816	0.335
m1 = 1.337	0.0739	0.33
m1 = 1.405	0.0695	0.326
m1 = 1.548	0.0611	0.321
m1 = 1.652	0.0557	0.321
m1 = 1.751	0.051	0.323
m1 = 1.825	0.0478	0.33
m1 = 1.91	0.0443	0.334
m1 = 2.042	0.0393	0.345
m1 = 2.173	0.0349	0.354
m1 = 2.216	0.0335	0.359
m1 = 2.239	0.0328	0.362
m1 = 2.276	0.0317	0.362
m1 = 2.339	0.0299	0.372
m1 = 2.38	0.0288	0.377
m1 = 2.583	0.0236	0.402

CCCC[N+](CC)(CC)CCCC.[I-] [N-butyl-N,N-diethylbutan-1-aminium iodide] + O
Conditions	mean ionic activity coefficient, [1]	osmotic coefficient, [2]
m1 = 0.0372	0.7064	0.828
m1 = 0.0441	0.6798	0.813
m1 = 0.0491	0.6621	0.805
m1 = 0.0634	0.6174	0.782
m1 = 0.0706	0.5976	0.772
m1 = 0.0749	0.5865	0.768
m1 = 0.0839	0.5647	0.756
m1 = 0.0992	0.5317	0.738
m1 = 0.1069	0.5166	0.731
m1 = 0.1133	0.5048	0.723
m1 = 0.1221	0.4896	0.716
m1 = 0.1938	0.3939	0.654
m1 = 0.1969	0.3912	0.649
m1 = 0.2338	0.3566	0.625
m1 = 0.2705	0.3248	0.61
m1 = 0.2758	0.3213	0.605
m1 = 0.3292	0.2868	0.581
m1 = 0.3751	0.2634	0.559
m1 = 0.4189	0.2415	0.546
m1 = 0.4343	0.2351	0.541
m1 = 0.4687	0.2213	0.532
m1 = 0.5317	0.2037	0.508
m1 = 0.58	0.1904	0.497
m1 = 0.6463	0.1748	0.481
m1 = 0.7082	0.166	0.463
m1 = 0.758	0.1556	0.456
m1 = 0.7808	0.1521	0.451
m1 = 0.9199	0.1348	0.426
m1 = 0.9899	0.1266	0.416
m1 = 1.1	0.1171	0.401
m1 = 1.178	0.1131	0.389
m1 = 1.324	0.1042	0.375
m1 = 1.426	0.0988	0.371
m1 = 1.548	0.0944	0.366
m1 = 1.66	0.0909	0.362
m1 = 1.76	0.0885	0.363
m1 = 1.926	0.0852	0.366
m1 = 2.042	0.0821	0.377
m1 = 2.078	0.0809	0.383
m1 = 2.108	0.0807	0.384
m1 = 2.136	0.0802	0.386
m1 = 2.179	0.0789	0.4
m1 = 2.218	0.0782	0.405
m1 = 2.389	0.0748	0.434

Reference: the NIST ThermoML archive (doi:10.1021/je2009413)
